Reference: PubChem BioAssay (NCI)
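Results reflect a 48-hour exposure of cells in 96-well plates to compound at five concentrations. GI50 marks 50% less growth. TGI: total growth inhibition.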

Tests used:
Assay in all cases: NCI-60 cell line screen, 48 h
HCT-15 colon = test system: HCT-15 colon
NCI-H226 lung = test system: NCI-H226 lung
MCF7 breast = test system: MCF7 breast
IGROV1 ovarian = test system: IGROV1 ovarian
BT-549 breast = test system: BT-549 breast
RXF 393 renal = test system: RXF 393 renal
MALME-3M melanoma = test system: MALME-3M melanoma
OVCAR-3 ovarian = test system: OVCAR-3 ovarian
CCRF-CEM leukemia = test system: CCRF-CEM leukemia
HL-60(TB) leukemia = test system: HL-60(TB) leukemia
NCI-H460 lung = test system: NCI-H460 lung
K-562 leukemia = test system: K-562 leukemia
PC-3 prostate = test system: PC-3 prostate
TK-10 renal = test system: TK-10 renal
SNB-19 CNS = test system: SNB-19 CNS
EKVX NSCLC = test system: EKVX NSCLC
SK-MEL-2 melanoma = test system: SK-MEL-2 melanoma
SF-295 CNS = test system: SF-295 CNS
SN12C renal = test system: SN12C renal
SK-MEL-5 melanoma = test system: SK-MEL-5 melanoma
UO-31 renal = test system: UO-31 renal
HS 578T breast = test system: HS 578T breast
M14 melanoma = test system: M14 melanoma
RPMI-8226 leukemia = test system: RPMI-8226 leukemia
SF-268 CNS = test system: SF-268 CNS
ACHN renal = test system: ACHN renal
HCC-2998 colon = test system: HCC-2998 colon
SW-620 colon = test system: SW-620 colon
OVCAR-8 ovarian = test system: OVCAR-8 ovarian
HCT-116 colon = test system: HCT-116 colon
SR leukemia = test system: SR leukemia
CAKI-1 renal = test system: CAKI-1 renal
786-0 renal = test system: 786-0 renal
SF-539 CNS = test system: SF-539 CNS
MDA-MB-435 = test system: MDA-MB-435
SK-OV-3 ovarian = test system: SK-OV-3 ovarian
OVCAR-5 ovarian = test system: OVCAR-5 ovarian
LOX IMVI melanoma = test system: LOX IMVI melanoma
MOLT-4 leukemia = test system: MOLT-4 leukemia
SK-MEL-28 melanoma = test system: SK-MEL-28 melanoma
HT29 colon = test system: HT29 colon
HOP-62 NSCLC = test system: HOP-62 NSCLC
OVCAR-4 ovarian = test system: OVCAR-4 ovarian
UACC-62 melanoma = test system: UACC-62 melanoma
COLO 205 colon = test system: COLO 205 colon
NCI-H23 lung = test system: NCI-H23 lung
A498 renal = test system: A498 renal
MDA-MB-231 breast = test system: MDA-MB-231 breast
U251 CNS = test system: U251 CNS
NCI/ADR-RES ovarian = test system: NCI/ADR-RES ovarian
NCI-H522 lung = test system: NCI-H522 lung
A549 NSCLC = test system: A549 NSCLC
UACC-257 melanoma = test system: UACC-257 melanoma
DU-145 prostate = test system: DU-145 prostate
HOP-92 NSCLC = test system: HOP-92 NSCLC
SNB-75 CNS = test system: SNB-75 CNS

COc1cc2c(cc1O)CC[C@@H]1[C@@H]2CC[C@]2(C)[C@@H](OCCCN(C)C)CC[C@@H]12
GI50 (HCT-15 colon): 0.125 µM | TGI (HCT-15 colon): 0.558 µM | GI50 (NCI-H226 lung): 0.617 µM | TGI (NCI-H226 lung): 1.57 µM | GI50 (MCF7 breast): 0.148 µM | TGI (MCF7 breast): 0.439 µM | GI50 (IGROV1 ovarian): 0.523 µM | TGI (IGROV1 ovarian): 1.43 µM | GI50 (BT-549 breast): 0.116 µM | TGI (BT-549 breast): 0.394 µM | GI50 (RXF 393 renal): 0.0889 µM | TGI (RXF 393 renal): 0.226 µM | GI50 (MALME-3M melanoma): 0.0902 µM | TGI (MALME-3M melanoma): 0.194 µM | GI50 (OVCAR-3 ovarian): 0.155 µM | TGI (OVCAR-3 ovarian): 0.543 µM | GI50 (CCRF-CEM leukemia): 0.178 µM | TGI (CCRF-CEM leukemia): 0.556 µM | GI50 (HL-60(TB) leukemia): 0.0968 µM | TGI (HL-60(TB) leukemia): 0.203 µM | GI50 (NCI-H460 lung): 0.163 µM | TGI (NCI-H460 lung): 0.55 µM | GI50 (K-562 leukemia): 0.1 µM | TGI (K-562 leukemia): 0.331 µM | GI50 (PC-3 prostate): 0.183 µM | TGI (PC-3 prostate): 0.748 µM | GI50 (TK-10 renal): 0.154 µM | TGI (TK-10 renal): 0.496 µM | GI50 (SNB-19 CNS): 0.303 µM | TGI (SNB-19 CNS): 1.06 µM | GI50 (EKVX NSCLC): 0.208 µM | TGI (EKVX NSCLC): 0.958 µM | GI50 (SK-MEL-2 melanoma): 0.0769 µM | TGI (SK-MEL-2 melanoma): 0.198 µM | GI50 (SF-295 CNS): 0.098 µM | TGI (SF-295 CNS): 0.208 µM | GI50 (SN12C renal): 0.304 µM | TGI (SN12C renal): 1.08 µM | GI50 (SK-MEL-5 melanoma): 0.0833 µM | TGI (SK-MEL-5 melanoma): 0.154 µM | GI50 (UO-31 renal): 0.224 µM | TGI (UO-31 renal): 0.86 µM | GI50 (HS 578T breast): 0.21 µM | TGI (HS 578T breast): 1.19 µM | GI50 (M14 melanoma): 0.0933 µM | TGI (M14 melanoma): 0.19 µM | GI50 (RPMI-8226 leukemia): 0.126 µM | TGI (RPMI-8226 leukemia): 0.301 µM | GI50 (SF-268 CNS): 0.182 µM | TGI (SF-268 CNS): 0.801 µM | GI50 (ACHN renal): 0.164 µM | TGI (ACHN renal): 0.527 µM | GI50 (HCC-2998 colon): 0.13 µM | TGI (HCC-2998 colon): 0.346 µM | GI50 (SW-620 colon): 0.16 µM | TGI (SW-620 colon): 0.513 µM | GI50 (OVCAR-8 ovarian): 0.196 µM | TGI (OVCAR-8 ovarian): 0.733 µM | GI50 (HCT-116 colon): 0.0981 µM | TGI (HCT-116 colon): 0.381 µM | GI50 (SR leukemia): 0.12 µM | TGI (SR leukemia): 0.39 µM | GI50 (CAKI-1 renal): 0.271 µM | TGI (CAKI-1 renal): 0.904 µM | GI50 (786-0 renal): 0.0905 µM | TGI (786-0 renal): 0.201 µM | GI50 (SF-539 CNS): 0.0867 µM | TGI (SF-539 CNS): 0.172 µM | GI50 (MDA-MB-435): 0.0899 µM | TGI (MDA-MB-435): 0.182 µM | GI50 (SK-OV-3 ovarian): 0.198 µM | TGI (SK-OV-3 ovarian): 0.675 µM | GI50 (OVCAR-5 ovarian): 0.296 µM | TGI (OVCAR-5 ovarian): 1.14 µM | GI50 (LOX IMVI melanoma): 0.0906 µM | TGI (LOX IMVI melanoma): 0.173 µM | GI50 (MOLT-4 leukemia): 0.145 µM | TGI (MOLT-4 leukemia): 0.555 µM | GI50 (SK-MEL-28 melanoma): 0.102 µM | TGI (SK-MEL-28 melanoma): 0.243 µM | GI50 (HT29 colon): 0.0969 µM | TGI (HT29 colon): 0.233 µM | GI50 (HOP-62 NSCLC): 0.182 µM | TGI (HOP-62 NSCLC): 0.728 µM | GI50 (OVCAR-4 ovarian): 0.18 µM | TGI (OVCAR-4 ovarian): 0.871 µM | GI50 (UACC-62 melanoma): 0.11 µM | TGI (UACC-62 melanoma): 0.269 µM | GI50 (COLO 205 colon): 0.268 µM | TGI (COLO 205 colon): 1.03 µM | GI50 (NCI-H23 lung): 0.119 µM | TGI (NCI-H23 lung): 0.552 µM | GI50 (A498 renal): 0.278 µM | TGI (A498 renal): 0.901 µM | GI50 (MDA-MB-231 breast): 0.104 µM | TGI (MDA-MB-231 breast): 0.219 µM | GI50 (U251 CNS): 0.126 µM | TGI (U251 CNS): 0.334 µM | GI50 (NCI/ADR-RES ovarian): 0.133 µM | TGI (NCI/ADR-RES ovarian): 0.44 µM | GI50 (NCI-H522 lung): 0.0999 µM | TGI (NCI-H522 lung): 0.248 µM | GI50 (A549 NSCLC): 0.165 µM | TGI (A549 NSCLC): 0.65 µM | GI50 (UACC-257 melanoma): 0.104 µM | TGI (UACC-257 melanoma): 0.206 µM | GI50 (DU-145 prostate): 0.161 µM | TGI (DU-145 prostate): 0.603 µM | GI50 (HOP-92 NSCLC): 0.112 µM | TGI (HOP-92 NSCLC): 0.473 µM | GI50 (SNB-75 CNS): 0.0768 µM | TGI (SNB-75 CNS): 0.273 µM
